Test system: PC-3; call rule not given here
Test: Cytotoxicity against human PC3 cells by MTT assay
Type: functional, cell-based

Structure (SMILES): N=C(N)NCCC[C@@H](NC(=O)c1cccc(O)c1O)C(=O)N[C@@H](COC(=O)[C@H](CO)NC(=O)[C@@H](CCCNC(=N)N)NC(=O)c1cccc(O)c1O)C(=O)O [DIVANCHROBACTIN]
- IC50: Not Active

Structure (SMILES): N=C(N)NCCC[C@@H](NC(=O)c1cccc(O)c1O)C(=O)N[C@@H](COC(=O)[C@H](COC(=O)[C@H](CO)NC(=O)[C@@H](CCCNC(=N)N)NC(=O)c1cccc(O)c1O)NC(=O)[C@@H](CCCNC(=N)N)NC(=O)c1cccc(O)c1O)C(=O)O [TRIVANCHROBACTIN]
- IC50: Not Active

Structure (SMILES): N=C(N)NCCC[C@@H](NC(=O)c1cccc(O)c1O)C(=O)N[C@@H](CO)C(=O)O [VANCHROBACTIN]
- IC50: Not Active

Reference: ChEMBL document CHEMBL1166002, “Vanchrobactin and anguibactin siderophores produced by Vibrio sp. DS40M4” (J Nat Prod, 2010)
